Several values for one entry are separate records, joined by “and”; a condition that tells them apart may be missing. Identical values can stand only once. Like-named read-outs stand apart in the source and are kept apart here.
Columns and labels:
blood platelets = assay: Preventive effect upon the aggregation of blood platelets (collagen-induced, platelet-rich plasma); assay type: cell-based, male Sprague-Dawley rats; conditions: for inhibition at 100 µg/mL: Rattus norvegicus, Platelet
blood sugar [1] = assay: Blood sugar-lowering activity (oral test compound, subcutaneous glucose load); assay type: in vivo, male ddY mice; conditions: for minimal effective dose: Mus musculus, 1 h, read-out: Minimum effective dose (blood sugar-lowering activity)
Procedure: For example, when the blood sugar-lowering activity was estimated by orally administering a test compound to mice immediately before subcutaneous injection of glucose, said activity of the compound of the present invention was about 100 to about 1000 times stronger than that of Phenformin (Chemical name: 1-phenethylbiguanide).
An aqueous solution or suspension (10 ml/kg) of a test compound was administered orally through a stomach tube to a group of male ddY mice (each group consisting of five mice) which fasted for 20 hours. A physiological saline solution (10 ml/kg) containing 10 w/v % glucose was injected subcutaneously to the mice immediately after the oral administration of the test compound. One hour after the injection of glucose, 0.02 ml of blood was collected from the tail vein of the mice. Then, the amount of glucose in the blood sample was estimated by the glucose oxidase method (H. U. Bergmeyer & E. Bernt, "Methods of Enzymatic Analysis", H. U. Bergmeyer (Ed.), Acadamic Press, New York & London, 1963, page 123). The blood sugar-lowering activity of the test compound was calculated by the following formula: [formula] Further, on the basis of the potency ratio calculated above, the activity of the test compound was expressed as follows: […]

blood sugar [2] = conditions: U.S. Pat. Nos. 4,032,575 and 4,131,686, Japanese Patent Publication No. 71428/1977; cited from earlier work
mice = assay: Acute toxicity / maximum tolerance dose (intraperitoneal injection); assay type: in vivo; conditions: 48 hours after intraperitoneal injection
Procedure: For example, the maximum tolerance dose (M.T.D.) of α-[(α,α-dimethyl-3,4-dimethoxyphenethylamino)methyl]-2-benzyloxybenzylalcohol oxalate and α-[(α,α-dimethyl-3,4-dimethoxyphenethylamino)methyl]-2-chlorobenzylalcohol hydrochloride which was estimated 48 hours after intraperitoneal injection thereof to a group of 4 mice was not less than 100 mg/kg.

[3] = 100 μg/ml, graded against acetylsalicylic acid 100 μg/ml
[4] = test compound 100 μg/ml, collagen, rat PRP
[5] = read-out: Inhibition (%) against platelet aggregation, A* (test compound group)

Compound | Platelet aggregation inhibiting activity (blood platelets; [3]) | Inhibition (%) against platelet aggregation, A* (test compound group) (blood platelets; [4]) [%] | Minimum effective dose (blood sugar-lowering activity) (blood sugar [1]; oral, mice) [mg/kg] | also measured
α-[(α,α-dimethyl-2,3,4-trimethoxyphenethylamino)methyl]- 2-hydroxybenzylalcohol 1/2 oxalate [Test compound 11] | ++ | 59 | 1.0 | –
COc1ccc(CCNCC(O)c2ccccc2OC)cc1OC (stereo not drawn) [α-[(3,4-dimethoxyphenethylamino)methyl]-2-methoxybenzylalcohol, reference compound] | – | – | – | preventive effect upon the aggregation of blood platelets (in words) (blood platelets): no substantial preventive effect; blood sugar-lowering activity (in words) (blood sugar [2]): show a blood sugar-lowering activity
CCCCOc1ccccc1C(O)CNC(C)(C)Cc1ccc(OC)cc1 (centres unmarked) [compound 4] | – | – | – | minimal effective dose (blood sugar [1]; oral, mice): 0.3 mg/kg
COc1ccc(CC(C)(C)NCC(O)c2ccccc2Cl)cc1.Cl (stereo not drawn) [Test compound 5, α-[(α,α-dimethyl-4-methoxyphenethylamino)-methyl]-2-chlorobenzylalcohol hydrochloride] | – | – | – | minimal effective dose (blood sugar [1]; po): 0.1 mg/kg
α-[(α,α-dimethyl-2,3,4-trimethoxyphenethylamino)methyl]- 2-chlorobenzylalcohol hydrochloride [Test compound 14] | ++ | 93 | 0.1 | –
α-[(α,α-dimethyl-2,3,4-trimethoxyphenethylamino)methyl]- 2-methoxybenzylalcohol hydrochloride [Test compound 13] | + (not less than 10% inhibition of platelet aggregation but said percentage inhibition was not higher than that of acetylsalicylic acid (100 μg/ml)) | 37 | 1.0 | –
α-[(α,α-dimethyl-3,4-methylenedioxyphenethylamino)methyl]-2-benzyloxybenzylalcohol 1/2 oxalate [Test compound 16] | + (not less than 10% inhibition of platelet aggregation but said percentage inhibition was not higher than that of acetylsalicylic acid (100 μg/ml)) | 29 | 0.3 | –
CC(=O)Oc1ccccc1C(=O)O [acetylsalicylic acid, reference compound] | – | – | – | Inhibition (%) against platelet aggregation, B** (acetylsalicylic acid group) (blood platelets; acetylsalicylic acid 100 μg/ml, comparison group for the test compound of the same line): 31% and 58% and 50% and 56% and 54%
α-[(α,α-dimethyl-3,4-dimethoxyphenethylamino)methyl]-2-methoxybenzylalcohol hydrochloride [Test compound 8] | ++ | 57 | 1.0 | –
α-[(α,α-dimethyl-4-methoxyphenethylamino)methyl]-2-benzyloxybenzylalcohol hydrochloride [Example 7] | ++ | 90 | 0.3 | –
COc1ccc(CCNCC(O)c2ccccc2OCc2ccccc2)cc1OC (stereo not drawn) [α-[(3,4-dimethoxyphenethylamino)methyl]-2-benzyloxybenzylalcohol] | – | – | – | blood sugar-lowering activity (in words) (blood sugar [2]): show a blood sugar-lowering activity
COc1ccc(CC(C)(C)NCC(O)c2ccccc2OCc2ccccc2)cc1 (centres unmarked) [compound 2] | – | – | – | inhibition at 100 µg/mL (blood platelets; 100 μg/ml, graded against acetylsalicylic acid 100 μg/ml, read-out: Platelet aggregation inhibiting activity): > 10%; inhibition at 100 µg/mL (blood platelets; test compound 100 μg/ml, collagen, rat PRP, read-out: Inhibition (%) against platelet aggregation, A* (test compound group)): 27%; minimal effective dose (blood sugar [1]; oral, mice): 1 mg/kg
COc1ccc(CCNCC(O)c2ccccc2O)cc1OC (stereo not drawn) [α-[(3,4-dimethoxyphenethylamino)methyl]-2-hydroxybenzylalcohol, reference compound] | – | – | – | preventive effect upon the aggregation of blood platelets (in words) (blood platelets): no substantial preventive effect; blood sugar-lowering activity (in words) (blood sugar [2]): show a blood sugar-lowering activity
COc1ccc(CC(C)(C)NCC(O)c2ccccc2O)cc1 (centres unmarked) [compound 1] | ++ | – | – | inhibition at 100 µg/mL (blood platelets; [5]): 90%; minimal effective dose (blood sugar [1]; po): 0.3 mg/kg
α-[(α,α-dimethyl-4-methoxyphenethylamino)methyl]-2-n-butoxybenzylalcohol hydrochloride [Test compound 4] | + (not less than 10% inhibition of platelet aggregation but said percentage inhibition was not higher than that of acetylsalicylic acid (100 μg/ml)) | 31 | 0.1 | –
α-[(α,α-dimethyl-3,4-dimethoxyphenethylamino)methyl]-2-hydroxybenzylalcohol 1/2 oxalate [Test compound 6] | ++ | – | 1.0 | –
α-[(α,α-dimethyl-4-methoxyphenethylamino)methyl]-2-methoxybenzylalcohol 1/2 oxalate [Test compound 3] | + (not less than 10% inhibition of platelet aggregation but said percentage inhibition was not higher than that of acetylsalicylic acid (100 μg/ml)) | 57 | 1.0 | –
α-[(α,α-dimethyl-2,3,4-trimethoxyphenethylamino)methyl]- 2-benzyloxybenzylalcohol 1/2 oxalate [Test compound 12] | ++ | 85 | 1.0 | –
α-[(α,α-dimethyl-4-methoxyphenethylamino)methyl]-2-hydroxybenzylalcohol 1/2 oxalate [Test compound 1] | + (not less than 10% inhibition of platelet aggregation but said percentage inhibition was not higher than that of acetylsalicylic acid (100 μg/ml)) | 22 | 0.3 | –
α-[(α,α-dimethyl-3,4-methylenedioxyphenethylamino)methyl]-2-methoxybenzylalcohol 1/2 succinate [Test compound 17] | – | – | 2.0 | –
α-[(α,α-dimethyl-3,4-dimethoxyphenethylamino)methyl]-2-n-butoxybenzylalcohol hydrochloride [Test compound 9] | + (not less than 10% inhibition of platelet aggregation but said percentage inhibition was not higher than that of acetylsalicylic acid (100 μg/ml)) | 33 | 1.0 | –
α-[(α,α-dimethyl-3,4-methylenedioxyphenethylamino)methyl]-2-hydroxybenzylalcohol 1/2 oxalate [Test compound 15] | – | – | 5.0 | –
α-[(α,α-dimethyl-3,4-dimethoxyphenethylamino)methyl]-2-benzyloxybenzylalcohol oxalate [Test compound 7] | + (not less than 10% inhibition of platelet aggregation but said percentage inhibition was not higher than that of acetylsalicylic acid (100 μg/ml)) | 17 | 0.3 | maximum tolerance dose (M.T.D.) (mice): not less than 100 mg/kg
α-[(α,α-dimethyl-3,4-dimethoxyphenethylamino)methyl]-2-chlorobenzylalcohol hydrochloride [Test compound 10] | ++ | 84 | 1.0 | maximum tolerance dose (M.T.D.) (mice): not less than 100 mg/kg
COc1ccc(CC(C)(C)NCC(O)c2ccccc2OC)cc1 (centres unmarked) [compound 3] | ++ | – | – | inhibition at 100 µg/mL (blood platelets; [5]): 80%; minimal effective dose (blood sugar [1]; po): 0.1 mg/kg

From patent US4276304A, “Novel benzylalcohol derivative and process for preparing the same” (priority 1979, dated 1981)
